In patent publication US20100093531A1 (priority 2007, published 2010):
Read-outs that look alike come from different tables or passages of the source.

Legend:
Phytophthora infestans [1] = format: in vivo; conditions: individual active compound, tomato, 6 days after inoculation
Botrytis cinerea = test: Preventative control of grey mold (Botrytis cinerea) on leaves of green pepper (greenhouse); format: in vivo; conditions: individual active compound, 5 days after inoculation
Procedure: (§1) Preparation: The spray solutions were prepared in several steps:
(§2) A stock solution was prepared: a mixture of acetone and/or DMSO and the wetting agent/emulsifier Uniperol, which is based on ethoxylated alkylphenoles, in a relation (volume) solvent-emulsifier of 99 to 1 was added to 25 mg of the compound to give a total of 10 ml. Water was then added to total volume of 100 ml.
(§3) This stock solution was diluted with the described solvent-emulsifier-water mixture to the given concentration.
Young seedlings of green pepper were grown in pots to the 2 to 3 leaf stage. These plants were sprayed to run-off with an aqueous suspension, containing the concentration of active ingredient or their mixture mentioned in the table below. The next day the treated plants were inoculated with a spore suspension of Botrytis cinerea in a 2% aqueous biomalt solution. Then the trial plants were immediately transferred to a dark, humid chamber. After 5 days at 22 to 24° C. and a relative humidity close to 100% the extent of fungal attack on the leaves was visually assessed as % diseased leaf area.
(§4) Evaluation was carried out analogously to example 1.

Plasmopara viticola = test: Fungicidal control of grape downy mildew caused by Plasmopara viticola (greenhouse); format: in vivo; conditions: individual active compound
Procedure: as §1, §2, §3
Grape cuttings were grown in pots to the 4 to 5 leaf stage. These plants were sprayed to run-off with an aqueous suspension, containing the concentration of active ingredient or their mixture mentioned in the table below. The plants were allowed to air-dry. The next day they were inoculated with an aqueous spore suspension of Plasmopara viticola by spraying it at the lower leaf-side. Then the trial plants were immediately transferred for 24 h to a humid chamber with 22-24° C. and a relative humidity close to 100%. For a period of 5 days, cultivation followed in a greenhouse at 20-25° C. and a relative humidity about 50-80%. To stimulate the outbreak of the disease symptoms, the plants were transferred to a humid chamber again for 24 hours. Then the extent of fungal attack on the lower leaf surface was visually assessed as % diseased leaf area.
as §4

Phytophthora infestans [2] = test: microbe, parasite or virus in culture; format: cell-based; conditions: for Efficacy in % of the untreated control: individual active compound, microtiter test, day 7
Septoria tritici = test: Activity against Septoria tritici in the microtiter test; format: cell-based; conditions: individual active compound, day 7
Phakopsora pachyrhizi = test: Curative control of soy bean rust on soy beans caused by Phakopsora pachyrhizi (greenhouse); format: in vivo; conditions: individual active compound, 14 days
Procedure: as §1, §2, §3
Leaves of pot-grown soy bean seedlings were inoculated with spores of Phakopsora pachyrhizi. To ensure the success the artificial inoculation, the plants were transferred to a humid chamber with a relative humidity of about 95% and 23 to 27° C. for 24 h. The next day the plants were sprayed to run-off with an aqueous suspension, containing the concentration of active ingredient as described below. The plants were allowed to air-dry. Then the trial plants were cultivated for 14 days in a greenhouse chamber at 23-27° C. and a relative humidity between 60 and 80%. The extent of fungal attack on the leaves was visually assessed as % diseased leaf area.
as §4

[3] = Phytophthora infestans, 168 h, read-out: Efficacy in % of the untreated control

SMILES: N#Cc1nn(-c2c(Cl)cc(C(F)(F)F)cc2Cl)c(N)c1[S+]([O-])C(F)(F)F (stereo not drawn) [Fipronil, reference compound]
- Efficacy in % of the untreated control (Phytophthora infestans [1]; 16 ppm in the spray liquor): 0%
- Efficacy in % of the untreated control (Phytophthora infestans [1]; 63 ppm in the spray liquor): 0%
- Efficacy in % of the untreated control (Botrytis cinerea; 63 ppm in the spray liquor): 10%
- Efficacy in % of the untreated control (Plasmopara viticola; 16 ppm in the spray liquor): 0%
- inhibition of growth at 1 ppm (Phytophthora infestans [2]; [3]): 1%
- inhibition of growth at 4 ppm (Phytophthora infestans [2]; [3]): 16%
- inhibition of growth at 16 ppm (Phytophthora infestans [2]; [3]): 20%

SMILES: CC1(C)C(C=C(Cl)Cl)C1C(=O)OC(C#N)c1cccc(Oc2ccccc2)c1 (stereo not drawn) [α-Cypermethrin]
- Efficacy in % of the untreated control (Septoria tritici; 63 ppm): 9%

SMILES: CNC(=O)Oc1cccc2c1OC(C)(C)C2 [Carbofuran, reference compound]
- Efficacy in % of the untreated control (Phytophthora infestans [1]; 16 ppm in the spray liquor): 0%
- Efficacy in % of the untreated control (Phakopsora pachyrhizi; 16 ppm in the spray liquor): 0%
- inhibition of growth at 1 ppm (Phytophthora infestans [2]; [3]): 6%
- inhibition of growth at 4 ppm (Phytophthora infestans [2]; [3]): 8%
- inhibition of growth at 16 ppm (Phytophthora infestans [2]; [3]): 12%

SMILES: Cc1nc2ncnn2c(N)c1-c1ccc(Cl)c(Cl)c1 [Tab. 1, I-9, 6-(3,4-dichlorophenyl)-5-methyl-[1,2,4]triazolo[1,5-a]pyrimidin-7-ylamine]
- Efficacy in % of the untreated control (Plasmopara viticola; 4 ppm in the spray liquor): 0%
- inhibition of growth at 1 ppm (Phytophthora infestans [2]; [3]): 64%
- Efficacy in % of the untreated control (Septoria tritici; 16 ppm): 12%

SMILES: CCc1nc2ncnn2c(N)c1CCC(C)CC(C)(C)C (stereo not drawn) [Tab. 1, # I-113, 5-ethyl-6-(3,5,5-trimethylhexyl)[1,2,4]triazolo[1,5-a]pyrimidin-7-ylamine]
- Efficacy in % of the untreated control (Phytophthora infestans [1]; 4 ppm in the spray liquor): 22%
- inhibition of growth at 4 ppm (Phytophthora infestans [2]; [3]): 11%

SMILES: CC1(C)C(C=C(Cl)Cl)C1C(=O)OC(C#N)c1cccc(Oc2ccccc2)c1 (stereo not drawn) [alpha-Cypermethrin]
- inhibition of growth at 4 ppm (Phytophthora infestans [2]; [3]): 7%
- inhibition of growth at 16 ppm (Phytophthora infestans [2]; [3]): 9%

SMILES: CCNC(=NNc1c(Cl)cc(C(F)(F)F)cc1Cl)C1(C)CC1(Cl)Cl (stereo not drawn) [A.23-1, N-R′-2,2-dihalo-1-R″cyclo-propanecarboxamide-2-(2,6-dichloro-α,α,α-fluoro-p-tolyl)hydrazone, wherein R′ is ethyl, halo is chloro, and R″ is methyl]
- Efficacy in % of the untreated control (Phakopsora pachyrhizi; 63 ppm in the spray liquor): 0%
- Efficacy in % of the untreated control (Phytophthora infestans [2]; 1 ppm): 10%
- Efficacy in % of the untreated control (Phytophthora infestans [2]; 4 ppm): 15%
- Efficacy in % of the untreated control (Phytophthora infestans [2]; 16 ppm): 15%

SMILES: C/C(=N\C#N)N(C)Cc1ccc(Cl)nc1 [Acetamipyrid]
- Efficacy in % of the untreated control (Plasmopara viticola; 16 ppm in the spray liquor): 0%
- Efficacy in % of the untreated control (Phytophthora infestans [2]; 4 ppm): 7%
- Efficacy in % of the untreated control (Phytophthora infestans [2]; 16 ppm): 9%

SMILES: CCCCCCCCc1c(CC)nc2ncnn2c1N [Tab. 1, I-110, 5-ethyl-6-octyl-[1,2,4]triazolo[1,5-a]pyrimidin-7-ylamine]
- inhibition of growth at 1 ppm (Phytophthora infestans [2]; [3]): 7%

SMILES: N#Cc1ccc(C/C(=N\NC(=O)Nc2ccc(OC(F)(F)F)cc2)c2cccc(C(F)(F)F)c2)cc1 [Metaflumizon]
- Efficacy in % of the untreated control (Plasmopara viticola; 16 ppm in the spray liquor): 0%
- Efficacy in % of the untreated control (Phytophthora infestans [2]; 4 ppm): 6%
- Efficacy in % of the untreated control (Phytophthora infestans [2]; 16 ppm): 12%
- Efficacy in % of the untreated control (Septoria tritici; 63 ppm): 0%

SMILES: CC1(C)C(C=C(Cl)Cl)C1C(=O)OC(C#N)c1cccc(Oc2ccccc2)c1 (stereo not drawn) [α-Cypermetrin]
- Efficacy in % of the untreated control (Plasmopara viticola; 63 ppm in the spray liquor): 0%

SMILES: O=[N+]([O-])NC1=NCCN1Cc1ccc(Cl)nc1 [Imidacloprid, reference compound]
- Efficacy in % of the untreated control (Phytophthora infestans [1]; 16 ppm in the spray liquor): 22%
- inhibition of growth at 1 ppm (Phytophthora infestans [2]; [3]): 5%
- inhibition of growth at 4 ppm (Phytophthora infestans [2]; [3]): 6%
- inhibition of growth at 16 ppm (Phytophthora infestans [2]; [3]): 11%

SMILES: CN/C(=N\[N+](=O)[O-])NCc1cnc(Cl)s1 [Clothianidin]
- inhibition of growth at 1 ppm (Phytophthora infestans [2]; [3]): 2%
- inhibition of growth at 4 ppm (Phytophthora infestans [2]; [3]): 2%
- inhibition of growth at 16 ppm (Phytophthora infestans [2]; [3]): 11%

SMILES: CCCCCCCCc1c(COC)nc2ncnn2c1N [Tab. 1, # I-245, 5-methoxymethyl-6-octyl-[1,2,4]triazolo[1,5-a]pyrimidin-7-ylamine]
- Efficacy in % of the untreated control (Phytophthora infestans [1]; 16 ppm in the spray liquor): 0%
- Efficacy in % of the untreated control (Phakopsora pachyrhizi; 4 ppm in the spray liquor): 0%
- Efficacy in % of the untreated control (Phakopsora pachyrhizi; 16 ppm in the spray liquor): 0%
- inhibition of growth at 0.25 ppm (Phytophthora infestans [2]; [3]): 10%
- Efficacy in % of the untreated control (Septoria tritici; 16 ppm): 4%

SMILES: CCCCCCCCc1nc2ncnn2c(N)c1CC [Tab. 1, # I-290, 6-ethyl-5-octyl-[1,2,4]triazolo[1,5-a]pyrimidin-7-ylamine]
- Efficacy in % of the untreated control (Botrytis cinerea; 16 ppm in the spray liquor): 0%
- Efficacy in % of the untreated control (Plasmopara viticola; 4 ppm in the spray liquor): 0%
- Efficacy in % of the untreated control (Plasmopara viticola; 16 ppm in the spray liquor): 56%
